In US20230172203A1, “PLANT METABOLISM PROMOTING COMPOSITIONS AND METHODS OF USE” (Panoptic Ag Solutions LLC, priority 2021, published 2023):

Columns and labels:
[1] = test system: Wheat (Triticum aestivum); experiment: 2022 Replicated South Dakota Spring Wheat Field Trial; format: in vivo
Description: Wheat seed (Triticum aestivum) was planted at a rate of 90 lbs/acre. The treated plot size was 5 ft×40 ft and this was replicated 4 times. A 20% L-theanine solution was applied at 8 fl. oz./acre to the foliage of the wheat approximately 40 days after emergence. The trial was fertilized and maintained under grower standard practices.

tea plants = conditions: exogenous application; background statement; cited from earlier work
Mustard plants = experiment: 2021 Greenhouse Mustard Trial (soil application); format: in vivo
Protocol: The base formulation used in greenhouse trials was an aqueous solution of L-theanine (20% by weight). The base formulation was further diluted with water as detailed for each trial. Mustard seeds (n=28/treatment) were planted in commercial potting soil in 1-gallon pots. Approximately 14 days after seedling emergence, an aqueous L-theanine solution was mixed into water at a rate of 0.2 mL per 1000 mL water. The resulting solution was applied to the soil of the pots at a rate of 50 mL per plant. Plants were grown for an additional 14 days then harvested.

Corn plants = experiment: 2021 Greenhouse Corn Trial (drench, two rates); format: in vivo; conditions: for Plant Biomass / Root Length: drench 50 mL per pot, harvested 21 days later
Protocol: The base formulation used in greenhouse trials was an aqueous solution of L-theanine (20% by weight). The base formulation was further diluted with water as detailed for each trial. Corn seed (n=14/treatment) was planted in commercial potting soil in 3-gallon pots. Approximately 14 days after emergence, an aqueous solution of L-theanine was applied at a rate of 0.2 mL (Treatment 2) and 0.4 mL (Treatment 3) per 1000 mL water. The resulting solutions were drenched at a rate of 50 mL per pot. The plants were grown for an additional 21 days then harvested.

Almond trees = experiment: 2021 Replicated California Almond Trial; format: in vivo
Protocol: Almond trees (n=6) were treated with a 20% aqueous solution of L-theanine at 1 pint per acre at pink bud and full bloom. Additional applications at 0.5 pint per acre soil were applied at petal fall, petal fall +3 weeks, and petal fall +6 weeks for a total of applications. The trial was maintained at grower standard fertilizer and pest management throughout the course of the trial.

Soybean (Glycine max) = experiment: 2021 Replicated Nebraska Soybean Field Trial; format: in vivo
Description: Soybean seeds (Glycine max) were planted at a rate of 150,000 seeds per acre. The treated plot size was 5 ft×40 ft and this was replicated 4 times. A 20% aqueous L-theanine solution was applied to the foliage at 8 fl. oz./acre at the R2 (full flowering) growth stage. The trial was fertilized and maintained under grower standard practices.

Soybean plants = experiment: 2021 Greenhouse Soybean Trial (soil application); format: in vivo
Protocol: The base formulation used in greenhouse trials was an aqueous solution of L-theanine (20% by weight). The base formulation was further diluted with water as detailed for each trial. Soybean seeds (n=28/treatment) were planted in commercial potting soil in 1-gallon pots. Approximately 14 days after seedling emergence, an aqueous L-theanine solution was mixed into water at a rate of 0.2 mL per 1000 mL water. The resulting solution was applied to the soil of the pots at a rate of 50 mL per plant. Plants were grown for an additional 14 days then harvested.

[2] = test system: Seedless watermelon plant seedlings; experiment: 2021 Watermelon Trial; format: in vivo
Description: The base formulation used in greenhouse trials was an aqueous solution of L-theanine (20% by weight). The base formulation was further diluted with water as detailed for each trial. Seedless watermelon plant seedlings (n=4/treatment) were planted in commercial potting soil and then were transplanted to 3-gallon pots. L-theanine treatment was applied at the equivalent of 1 pint in 100 gallons of water (125 ppm) and sprayed till runoff. Two treatment applications were made to the plants approximately 14 days apart.

Corn seed = experiment: 2020 Greenhouse Corn Seed Treatment Trial; format: in vivo
Protocol: The base formulation used in greenhouse trials was an aqueous solution of L-theanine (20% by weight). The base formulation was further diluted with water as detailed for each trial. Corn seed (n=9/treatment) was treated with an aqueous solution of L-theanine at a rate of 1.0 fl. oz. per hundredweight of corn seed. The seeds were planted in commercial potting soil in 1-gallon pots. The plants were grown for 21 days before they were harvested.

[3] = 0.2 mL per 1000 mL water, 50 mL per plant, harvested 14 days later
[4] = Treatment 2 (0.2 mL per 1000 mL), above the untreated check
[5] = Treatment 2: 8 fl. oz./acre (0.2 mL per 1000 mL water)
[6] = Treatment 3 (0.4 mL per 1000 mL), above the untreated check
[7] = Treatment 3: 16 fl. oz./acre (0.4 mL per 1000 mL water)
[8] = foliar spray 125 ppm till runoff, two applications ~14 days apart
[9] = vs untreated check, 125 ppm foliar, two applications
[10] = over the untreated check, seed treatment
[11] = seed treatment 1.0 fl. oz. per hundredweight of seed, harvested after 21 days

Compound: CCNC(=O)CC[C@H](N)C(=O)O [L-theanine]
- Yield ([1]; 20% solution, foliar, 8 fl. oz./acre ~40 days after emergence): 53.9 a Bushels/Acre
- increase in yield ([1]; over the untreated control): 5.3 bushels/acre
- increase in yield, percent ([1]; over the untreated control): 10.9%
- quality and yield of tea plants (in words) (tea plants): can improve the quality and yield of tea plants by increasing the number of usable leaves
- Plant Biomass (Mustard plants; [3]): 22.19 a g
- Root Length (Mustard plants; [3]): 545.5 a cm
- Root Tips (count) (Mustard plants; [3]): 3178.7 a count
- increase in plant biomass (Mustard plants; above the untreated check): 2.8 g
- increase in plant biomass, percent (Mustard plants; above the untreated check): 14.5%
- increase in root length (Mustard plants; above the untreated check): 120.9 cm
- increase in root length, percent (Mustard plants; above the untreated check): 28.5%
- increase in root tips (Mustard plants; above the untreated check): 887
- increase in root tips, percent (Mustard plants; above the untreated check): 38.7%
- change in biomass (Corn plants; [4]): 9.0 grams
- change in biomass, percent (Corn plants; [4]): 13.9%
- change in root length (Corn plants; [4]): −106.8
- change in root length, percent (Corn plants; [4]): −6.0%
- Plant Biomass (Corn plants; [5]): 74.0 a g
- Root Length (Corn plants; [5]): 1683.8 a cm
- change in biomass (Corn plants; [6]): 9.1 grams
- change in biomass, percent (Corn plants; [6]): 14.1%
- change in root length (Corn plants; [6]): 65.3
- change in root length, relative (in brackets) (Corn plants; [6]): 3.6
- Plant Biomass (Corn plants; [7]): 74.1 a g
- Root Length (Corn plants; [7]): 1855.9 a cm
- Yield (Almond trees; 20% aqueous solution, 1 pint per acre at pink bud and full bloom, 0.5 pint per acre soil at petal fall, +3 weeks, +6 weeks): 152.2 a lbs/tree
- increase in almond yield (average) (Almond trees; vs untreated check): 15.3 lbs per tree
- increase in almond yield, percent (Almond trees; vs untreated check): 11.2%
- Yield (Soybean (Glycine max); 20% aqueous solution, foliar, 8 fl. oz./acre at R2 (full flowering)): 84.6 a Bushels/Acre
- increase in yield (Soybean (Glycine max); over the untreated control): 6.0 bushels per acre
- increase in yield, percent (Soybean (Glycine max); over the untreated control): 7.6%
- Plant Biomass (Soybean plants; [3]): 7.44 a g
- Root Length (Soybean plants; [3]): 1631.4 a cm
- increase in root length (Soybean plants; above the untreated check): 66.4 cm
- increase in root length, percent (Soybean plants; above the untreated check): 4.2%
- increase in soybean biomass (Soybean plants; above the untreated check): 1.3 g
- increase in soybean biomass, percent (Soybean plants; above the untreated check): 20.4%
- Fruit/Vine (count) [2, 8]: 9.50 a count
- Vine Length [2, 8]: 51.0 a cm
- increase in average fruit per vine [2, 9]: 4.75
- increase in average fruit per vine, percent [2, 9]: 100.0%
- increase in vine development [2, 9]: 14.5 cm
- increase in vine development, percent [2, 9]: 39.7%
- increase in biomass (Corn seed; [10]): 1.3 g
- increase in biomass, percent (Corn seed; [10]): 4.4%
- increase in root length (Corn seed; [10]): 69.1 cm
- increase in root length, percent (Corn seed; [10]): 7.0%
- increase in root tips (Corn seed; [10]): 883.8
- increase in root tips, percent (Corn seed; [10]): 18.5%
- Plant Biomass (Corn seed; [11]): 29.88 a g
- Root Length (Corn seed; [11]): 1049.08 a cm
- Root Tips (#) (Corn seed; [11]): 5656.2 a #
